Measured values taken from patent US6399782B1, “Benzimidazole inhibitors of fructose 1,6-bisphosphatase” (Metabasis Therapeutics, Inc., priority 1997, dated 2002).

Assays:
[1] = biological target: T1, Phosphofructokinase (rabbit liver) (Oryctolagus cuniculus, UniProt Z9KA34MY27); assay: Phosphofructokinase selectivity assay; type: biochemical; conditions: result in words
T1 construct: Phosphofructokinase: Enzyme (rabbit liver) was purchased from Sigma
Experimental: (§1) To determine the selectivity of compounds towards FBPase, effects of FBPase inhibitors on 5 key AMP binding enzymes were measured using the assays described below:
Phosphofructokinase: Enzyme (rabbit liver) was purchased from Sigma. Activity was measured at 30° C. in reactions in which the formation of fructose 1,6-bisphosphate was coupled to the oxidation of NADH via the action of aldolase, triosephosphate isomerase, and α-glycerophosphate dehydrogenase. Reaction mixtures (200 μL) were made up in 96-well microtitre plates and were read at 340 nm in a Molecular Devices Microplate Reader. The mixtures consisted of 200 mM Tris-HCl pH 7.0, 2 mM DTT, 2 mM MgCl2, 0.2 mM NADH, 0.2 mM ATP, 0.5 mM Fructose 6-phosphate, 1 unit aldolase/ml, 3 units/ml triosephosphate isomerase, and 4 units/mL α-glycerophosphate dehydrogenase. Test compound concentrations ranged from 1 to 500 μM. Reactions were started by the addition of 0.0025 units of phosphofructokinase and were monitored for 15 minutes.

[2] = test system: fasted Sprague Dawley rats; assay: Blood glucose lowering in fasted rats; type: in vivo, rat; conditions: 20 mg/kg intraperitoneally, 18 hours fasted Sprague Dawley rats, one hour post injection
Experimental: Sprague Dawley rats (250-300 g) were fasted for 18 hours and then dosed intraperitoneally with 20 mg/kg of compounds 12.53, 12.61, or 12.64. The vehicle used for drug administration was 50 mM sodium bicarbonate. Blood samples were obtained from the tail vein of conscious animals just prior to injection and one hour post injection. Blood glucose was measured using a HemoCue Inc. glucose analyzer according to the instructions of the manufacturer.

Porcine heart AMPDA = assay: Adenosine monophosphate deaminase selectivity assay; type: biochemical; conditions: AMP deaminase vs hlFBPase
Experimental: as §1
Adenosine Monophosphate Deaminase: Porcine heart AMPDA was purified essentially as described by Smiley et al. (Smiley, K. L., Jr, Berry, A. J., and Suelter, C. H. (1967) J. Biol. Chem. 242, 2502-2506) through the phosphocellulose step. Inhibition of AMPDA activity was determined at 37° C. in a 0.1 mL assay mixture containing inhibitor, ˜0.005 U AMPDA, 0.1% bovine serum albumin, 10 mM ATP, 250 mM KCl, and 50 mM MOPS at pH 6.5. The concentration of the substrate AMP was varied from 0.125-10.0 mM. Catalysis was initiated by the addition of enzyme to the otherwise complete reaction mixture, and terminated after 5 minutes by injection into an HPLC system. Activities were determined from the amount of IMP formed during 5 minutes.

human liver FBPase = biological target: T2, human liver FBPase (Homo sapiens, UniProt P09467); assay: Inhibition of human liver FBPase; type: biochemical; conditions: for IC50: values in text, read-out: hlFBPase IC50
T2 construct: made in house; host or cells: E. coli BL21
T2 sequence (P09467 2-338 limits assumed): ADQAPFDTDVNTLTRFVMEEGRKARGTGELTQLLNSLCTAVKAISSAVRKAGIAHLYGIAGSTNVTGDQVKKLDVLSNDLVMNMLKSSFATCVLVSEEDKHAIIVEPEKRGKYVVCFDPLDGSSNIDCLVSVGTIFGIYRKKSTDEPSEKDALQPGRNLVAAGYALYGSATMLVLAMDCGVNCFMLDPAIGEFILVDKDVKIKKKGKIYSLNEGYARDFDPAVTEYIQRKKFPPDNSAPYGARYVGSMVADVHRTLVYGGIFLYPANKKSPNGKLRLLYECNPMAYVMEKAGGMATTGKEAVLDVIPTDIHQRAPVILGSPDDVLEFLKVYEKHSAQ
Experimental: Enzymatic activity was measured spectrophotometrically in reactions that coupled the formation of product (fructose 6-phosphate) to the reduction of dimethylthiazoldiphenyltetrazolium bromide (MTT) via NADP and phenazine methosulfate (PMS), using phosphoglucose isomerase and glucose 6-phosphate dehydrogenase as the coupling enzymes. Reaction mixtures (200 μl) were made up in 96-well microtitre plates, and consisted of 50 mM Tris-HCl, pH 7.4, 100 mM KCl, 5 mM EGTA, 2 mM MgCl2, 0.2 mM NADP, 1 mg/ml BSA, 1 mM MTT, 0.6 mM PMS, 1 unit/mL phosphoglucose isomerase, 2 units/mL glucose 6-phosphate dehydrogenase, and 0.150 mM substrate (fructose 1,6-bisphosphate). Inhibitor concentrations were varied from 0.01 μM to 10 μM. Reactions were started by the addition of 0.002 units of pure hlFBPase and were monitored for 7 minutes at 590 nm in a Molecular Devices Plate Reader (37° C.).

[3] = Analysis of drug levels and liver accumulation in rats; type: in vivo; conditions: rat, 20 mg/kg intraperitoneally, one hour post injection
Experimental: Sprague-Dawley rats (250-300 g) were fasted for […] and then dosed intraperitoneally either with saline (n=3) or 20 mgs/kg of FBPase inhibitor (n=4). The vehicle used for drug administration was 10 mM bicarbonate. One hour post injection rats were anesthetized with halothane and a liver biopsy (approx. 1 g) was taken as well as a blood sample (2 ml) from the posterior vena cava. A heparin flushed syringe and needle was used for blood collection. The liver sample was immediately homogenized in ice-cold 10% perchloric acid (3 mL), centrifuged, and the supernatant neutralized with ⅓rd volume of 3 M KOH/3 M KH2CO3. Following centrifugation and filtration, 50 μl of the neutralized extract was ana lyzed for FBPase inhibitor content by HPLC. A reverse phase YMC ODS AQ column ([…]) was used and eluted with a gradient from 10 mM sodium phosphate pH 5.5 to 75% acetonitrile. Absorbance was monitored at 310 nm. […] The methanolic extract was clarified by centrifugation and filtration and then analyzed by HPLC as described above.

[4] = test system: Zucker Diabetic Fatty rats; assay: Inhibition of gluconeogenesis in Zucker Diabetic Fatty rats (14C-bicarbonate incorporation into glucose); type: in vivo, rat; conditions: 50 mg/kg bolus via jugular catheter
Experimental: Nine Zucker Diabetic Fatty rats (16-weeks old, Genetics Models Inc., Indianapolis, Ind.) were fasted at midnight and instrumented with jugular catheters the following morning. […] After 50minutes a bolus of^14 C-sodium bicarbonate ([…]) was administered via the same route. 20 minutes later, the animals were quickly anesthetized with intravenous pentobarbitol and a blood sample (1.5 mL) was taken by cardiac puncture. Blood (0.5 mL) was diluted into 6 mL deionized water and protein precipitated by addition of 1 mL zinc sulfate (0.3 N) and 1 mL barium hydroxide (0.3 N). The mixture was centrifuged (20 minutes, 1000×g) and 5 mL of the resulting supernatant was then combined with 1 g of a mixed bed ion exchange resin (1 part AG 50W-X8, 100-200 mesh, hydrogen form and 2 parts of AG 1-X8, 100-200 mesh, acetate form) to separate ^14C-bicarbonate from ^14C-glucose. The slurry was shaken at room temperature for four hours and then allowed to settle. An aliquot of the supernatant (0.5 mL) was then counted in 5 mL scintillation cocktail.

[5] = test system: 18-hour fasted Sprague Dawley rats; assay: Glucose lowering following oral administration; type: in vivo, rat
Experimental: The compound was prepared in deionized water, adjusted to neutrality with sodium hydroxide, and brought into solution by sonication prior to administration. Blood glucose was measured immediately prior to dosing, and at 1 hour intervals thereafter. Blood samples were obtained from the tail vein, and measurements made by means of a Hemocue glucose analyzer (Hemocue Inc, Mission Viejo, Calif.) used according to the manufacturer's instructions. […] The average glucose lowering in the four responding animals was 62±8.6% relative to saline-treated controls at the 1 hour time point.

T1 sequence (Z9KA34MY27 1-780): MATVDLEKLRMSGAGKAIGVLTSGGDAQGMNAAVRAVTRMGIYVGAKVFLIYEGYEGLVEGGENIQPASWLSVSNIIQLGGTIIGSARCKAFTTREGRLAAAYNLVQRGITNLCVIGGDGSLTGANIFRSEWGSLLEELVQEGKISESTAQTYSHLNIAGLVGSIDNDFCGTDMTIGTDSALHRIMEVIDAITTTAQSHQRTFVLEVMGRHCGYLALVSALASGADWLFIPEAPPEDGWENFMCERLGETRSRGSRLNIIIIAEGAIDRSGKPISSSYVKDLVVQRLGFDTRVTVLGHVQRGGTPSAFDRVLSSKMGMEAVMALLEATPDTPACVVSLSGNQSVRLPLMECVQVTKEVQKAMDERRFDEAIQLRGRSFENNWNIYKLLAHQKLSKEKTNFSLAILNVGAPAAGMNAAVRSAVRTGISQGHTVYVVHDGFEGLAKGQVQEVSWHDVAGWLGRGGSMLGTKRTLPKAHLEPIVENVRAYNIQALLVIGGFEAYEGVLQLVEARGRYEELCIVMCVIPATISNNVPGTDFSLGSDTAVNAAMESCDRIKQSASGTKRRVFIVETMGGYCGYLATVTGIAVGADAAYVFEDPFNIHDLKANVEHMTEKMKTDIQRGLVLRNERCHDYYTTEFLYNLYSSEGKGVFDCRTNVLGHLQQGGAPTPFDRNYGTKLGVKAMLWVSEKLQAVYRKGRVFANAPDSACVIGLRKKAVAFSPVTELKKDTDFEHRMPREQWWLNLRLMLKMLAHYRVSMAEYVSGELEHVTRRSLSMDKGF

Structure (SMILES) | effect on phosphofructokinase [1] | blood glucose lowering [2] | half-maximal inhibition of AMP deaminase relative to IC50 for FBPase (Porcine heart AMPDA) | inhibition of human liver FBPase activity (FIG. 2) (human liver FBPase; result in words) | IC50 (human liver FBPase) | liver level [3] | plasma level [3] | reduction of incorporation of 14C-bicarbonate into 14C-glucose [4] | 14C-Glucose Produced (cpm/mL blood) ([4]; 14C-bicarbonate after 50 minutes, blood 20 minutes later) | % Glucose Produced ([4]; saline = 100) | blood glucose effect, oral 30 mg/kg ([5]; oral gavage 30 mg/kg, 18-hour fasted rats) | blood glucose effect, oral 100 mg/kg ([5]; oral gavage 100 mg/kg, 18-hour fasted rats) | average glucose lowering in the four responding animals ([5]; oral gavage 250 mg/kg, relative to saline-treated controls, 1 hour time point) | animals with profound hypoglycemia ([5]; oral gavage 250 mg/kg, within 1 hour of administration)
Nc1c(F)ccc2c1nc(-c1ccc(P(=O)(O)O)o1)n2CC1CC1 [Compound 12.61, 4-Amino-5-fluoro-1-cyclopropylmethyl-2-(2-phosphono-5-furanyl)benzimidazole] | essentially without effect | 48±15% | ~600 fold | inhibit human liver FBPase activity in vitro in a dose dependent manner | 55 nM |  |  |  |  |  |  |  |  | 
CCc1cc(F)c(N)c2nc(-c3ccc(P(=O)(O)O)o3)n(CC(C)C)c12 [Compound 12.64] |  | 64.6±24% |  |  |  | 90 nmol/g | 85 µM | approximately 50% | 32,827 ± 6130 cpm/mL blood | 49.2% | without effect | without effect | 62±8.6% | 4 out of 5
CCn1c(-c2ccc(P(=O)(O)O)o2)nc2c(N)cccc21 [Compound 12.1, 4-Amino-1-ethyl-2-[2-(5-phosphono)furanyl]benzimidazole] | essentially inactive |  | 42 fold |  | 2000 nM |  |  |  |  |  |  |  |  | 
